Read-outs that look alike come from different tables or passages of the source.
Experiments:
[1] = Cytotoxicity of A23187 and hydrogen peroxide on stable transfectants, propidium iodide uptake by flow cytometry; conditions: Chinese hamster, Percent cytotoxicity, 4 μg/ml A23187
Description: (§1) MATERIAL AND METHODS: Cell culture and treatment conditions. Chinese hamster HA-1 fibroblasts were maintained in Eagle's minimal essential medium supplemented with 8% heat inactivated fetal bovine serum, penicillin (100 units/ml) and streptomycin (100μg/ml). Cultures were grown in a humidified incubator atmosphere of 95% air and 5% CO2 at 37 °C.
(§2) Stress analyses. Control cells and lines 7, 10, and 15 were grown to log phase and equal confluency (75%). At this time, the cells were exposed to each stress agent and cytotoxicity measured. For the oxidative stress studies, a stock solution of hydrogen peroxide (30% w/w) was diluted in phosphate-buffered saline just prior to cell exposure. At the time of treatment, the HA-1 cultures were taken from the incubator and freshly diluted-peroxide added to the culture dishes. The cells were then returned to the incubator for the appropriate times.
(§3) Stable adapt78-overexpressing, vector control and non-transfected control HA-1 cells were exposed to 4 μg/ml calcium ionophore A23187 or […] for 60 minutes (A23187) or 90 minutes (hydrogen peroxide). Cytotoxicity was then determined by propidium iodide uptake using flow cytometry as follows. After treatment, monolayers were rinsed with PBS containing 3 mM EDTA, then covered with the same for 5 minutes at room temperature before suspending cells by gentle trituration. Cytotoxicity was then measured using propidium iodide and the stained cells analyzed by flow cytometry using a Becton Dickinson FAC Scan. The ModFit analytical software program was used to quantify the percentage of cytotoxicity.
(§4) Control cells and lines 7, 10, and 15 were grown to log phase and equal confluency (75%), then treated with 4 μg/ml A23187 and separately, 5 mM hydrogen peroxide. Cytotoxicity was then assessed by propidium iodide uptake using flow cytometry. Fold protection was calculated as the percent viability of cells compared with untransfected after subtracting out background (cells treated with solvent only). The average of untransfected percent viability was arbitrarily set at 1.0.

HA-1 cells [2] = assay: as above; conditions: n = 4
Description: as §1, §2, §3, §4

HA-1 cells [3] = conditions: 160 μM hydrogen peroxide; cited from earlier work
HA-1 cells [4] = conditions: stained 7 days later, cited from earlier work

SMILES | cytotoxicity at 60 min, 4 μg/ml ([1]; Untransfected HA-1 cells) | cytotoxicity at 60 min, 4 μg/ml ([1]; Vector transfected HA-1 cells) | cytotoxicity at 60 min, 4 μg/ml ([1]; adapt78 overexpressing Clone 7) | cytotoxicity at 60 min, 4 μg/ml ([1]; adapt78 overexpressing Clone 10) | cytotoxicity at 60 min, 4 μg/ml ([1]; adapt78 overexpressing Clone 15) | Fold protection +/− 1 S.D. (HA-1 cells [2]; 4 μg/ml A23187, Clone 7 vs Untransfected) | Fold protection +/− 1 S.D. (HA-1 cells [2]; 4 μg/ml A23187, Clone 10 vs Untransfected) | Fold protection +/− 1 S.D. (HA-1 cells [2]; 4 μg/ml A23187, Clone 15 vs Untransfected) | Fold protection +/− 1 S.D. (HA-1 cells [2]; 4 μg/ml A23187, Untransfected HA-1 cells (set at 1.0)) | Fold protection +/− 1 S.D. (HA-1 cells [2]; 4 μg/ml A23187, Vector transfected HA-1 cells vs Untransfected) | cytotoxicity using trypan blue exclusion (HA-1 cells [3]) | Fold protection +/− 1 S.D. (HA-1 cells [2]; 5 mM hydrogen peroxide, Clone 10 vs Untransfected) | Fold protection +/− 1 S.D. (HA-1 cells [2]; 5 mM hydrogen peroxide, Clone 15 vs Untransfected) | Fold protection +/− 1 S.D. (HA-1 cells [2]; 5 mM hydrogen peroxide, Untransfected HA-1 cells (set at 1.0)) | Fold protection +/− 1 S.D. (HA-1 cells [2]; 5 mM hydrogen peroxide, Vector transfected HA-1 cells vs Untransfected) | decrease in colony number compared with control (HA-1 cells [4]; 160 μM hydrogen peroxide for 5 hours) | decrease in colony number compared with control (HA-1 cells [4]; 400 μM hydrogen peroxide for 5 hours)
CNc1ccc2oc(C[C@H]3O[C@@]4(CC[C@H]3C)O[C@H]([C@H](C)C(=O)c3ccc[nH]3)[C@H](C)C[C@H]4C)nc2c1C(=O)O [A23187] | 48.2% | 44% | 10.1% | 11.7% | 11.8% | 4.8 +/− 0.5 fold | 4.1 +/− 1.0 fold | 4.1 +/− 0.3 fold | 1.0 +/− 0.4 fold | 1.1 +/− 0.3 fold |  |  |  |  |  |  | 
OO [Peroxide, hydrogen peroxide] |  |  |  |  |  |  |  |  |  |  | no associated cytotoxicity was observed | 3.7 +/− 0.6 fold | 4.2 +/− 0.6 fold | 1.0 +/− 0.3 fold | 1.0 +/− 0.4 fold | 79.5% | 97.8%

Source: patent US20030045679A1, “Calcineurin modulators” (priority 2001, published 2003)
